Measured values as given in ChEMBL document CHEMBL4421722, “Inhibitors of protein prenyltransferases” (2013).
pIC50: −log10 of the molar value.

System: not listed separately
Experiment: Inhibition of rat recombinant geranylgeranyltransferase type I expressed in Escherichia coli assessed as reduction in geranylgeranylation of RhoA incubated for 30 mins in presence of [3H]GGPP by scintillation counting assay relative to control
Conditions: not given

`CC(C)(C)[C@@H]1C=C(C(=O)N[C@@H](Cc2ccccc2)C(N)=O)[C@H](c2ccc(Br)cc2)N1S(=O)(=O)c1ccccc1Cl` and `Cc1ccccc1S(=O)(=O)N1[C@@H](c2ccc(Cl)c(Cl)c2)C(C(=O)N[C@@H](Cc2ccccc2)C(N)=O)=C[C@H]1C(C)(C)C` cannot be ordered by pIC50: 4.80 to 5.22 for the first, 5.12 to 5.27 for the second.

`CCC[C@@H]1[C@@H](Sc2ccc(OC)cc2)[C@@H](C(=O)O)[C@H](c2ccc(Br)cc2)N1S(=O)(=O)c1ccc(C)cc1` and `CCCCCCS[C@H]1[C@@H](C(=O)O)[C@H](c2ccc(Br)cc2)N(S(=O)(=O)c2ccc(C)cc2)[C@@H]1CC` cannot be ordered by pIC50: < 4.30 for the first, < 4.30 for the second.

Molecule `Cc1ccccc1S(=O)(=O)N1[C@@H](c2ccc(Cl)cc2)C(C(=O)N[C@@H](Cc2ccccc2)C(N)=O)=C[C@H]1C(C)CC(C)(C)C` (stereo partly specified) has a pIC50 of 4.30 to 5.00.

System: K562
Experiment: Antiproliferative activity against human K562 cells assessed as inhibition of cell proliferation incubated for 72 hrs by CCK8 assay
Format: functional, cell-based
Conditions: K562, 72 h

`CC(C)(C)[C@@H]1C=C(C(=O)N[C@@H](Cc2ccccc2)C(N)=O)[C@H](c2ccc(Br)cc2)N1S(=O)(=O)c1ccccc1Cl` and `Cc1ccccc1S(=O)(=O)N1[C@@H](c2ccc(Cl)c(Cl)c2)C(C(=O)N[C@@H](Cc2ccccc2)C(N)=O)=C[C@H]1C(C)(C)C` cannot be ordered by GI50: 5.21 to 9.18 µM for the first, 6.74 to 6.9 µM for the second.

`Cc1ccccc1S(=O)(=O)N1[C@@H](c2ccc(Cl)cc2)C(C(=O)N[C@@H](Cc2ccccc2)C(N)=O)=C[C@H]1C(C)CC(C)(C)C` (stereo partly specified) showed a GI50 of 5.95 to 6.3 µM.

Target: T1, Geranylgeranyl transferase type-2 (Homo sapiens, UniProt P53611+Q92696)
T1 sequence (P53611 whole entry): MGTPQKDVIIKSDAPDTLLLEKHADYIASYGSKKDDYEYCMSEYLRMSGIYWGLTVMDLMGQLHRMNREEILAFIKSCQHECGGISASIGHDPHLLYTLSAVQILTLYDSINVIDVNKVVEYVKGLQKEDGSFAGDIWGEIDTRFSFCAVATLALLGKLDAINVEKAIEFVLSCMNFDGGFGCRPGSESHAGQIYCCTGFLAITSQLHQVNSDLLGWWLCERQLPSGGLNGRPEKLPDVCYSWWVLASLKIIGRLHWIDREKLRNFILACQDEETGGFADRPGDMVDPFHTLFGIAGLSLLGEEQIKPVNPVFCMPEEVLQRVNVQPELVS
T1 sequence (Q92696 whole entry): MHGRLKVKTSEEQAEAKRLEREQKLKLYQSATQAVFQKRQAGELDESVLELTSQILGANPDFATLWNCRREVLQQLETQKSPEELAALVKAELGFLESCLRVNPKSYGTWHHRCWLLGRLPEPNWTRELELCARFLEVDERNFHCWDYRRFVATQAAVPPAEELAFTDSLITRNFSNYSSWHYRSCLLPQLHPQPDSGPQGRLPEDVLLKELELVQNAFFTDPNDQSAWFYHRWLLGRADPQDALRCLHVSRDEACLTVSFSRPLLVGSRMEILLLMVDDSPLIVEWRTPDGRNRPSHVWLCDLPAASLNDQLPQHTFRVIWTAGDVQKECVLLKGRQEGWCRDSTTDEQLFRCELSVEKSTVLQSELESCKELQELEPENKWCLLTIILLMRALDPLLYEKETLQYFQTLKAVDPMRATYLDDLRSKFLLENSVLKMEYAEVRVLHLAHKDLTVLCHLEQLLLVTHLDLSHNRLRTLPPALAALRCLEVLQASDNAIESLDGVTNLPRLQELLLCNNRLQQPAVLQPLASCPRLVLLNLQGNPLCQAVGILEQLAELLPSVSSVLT
Experiment: Inhibition of RabGGTase (unknown origin) using YPTI as substrate protein and [3H]geranylgeranyl pyrophosphate incubated for 20 mins by scintillation counting assay
Format: protein-complex assay
Conditions: not given

In order of falling pIC50:
1. CCC[C@@H]1[C@@H](Sc2ccc(OC)cc2)[C@@H](C(=O)O)[C@H](c2ccc(Br)cc2)N1S(=O)(=O)c1ccc(C)cc1  5.35
2. CCCCCCS[C@H]1[C@@H](C(=O)O)[C@H](c2ccc(Br)cc2)N(S(=O)(=O)c2ccc(C)cc2)[C@@H]1CC  5.32

Target: Protein farnesyltransferase (Rattus norvegicus, UniProt Q02293+Q04631)
Experiment: Inhibition of rat recombinant FTase alpha/beta expressed in Escherichia coli using K-Ras4B as a substrate as and [3H]farnesyl pyrophosphate incubated for 30 mins by scintillation counting assay
Conditions: not given

`CCC[C@@H]1[C@@H](Sc2ccc(OC)cc2)[C@@H](C(=O)O)[C@H](c2ccc(Br)cc2)N1S(=O)(=O)c1ccc(C)cc1` and `CCCCCCS[C@H]1[C@@H](C(=O)O)[C@H](c2ccc(Br)cc2)N(S(=O)(=O)c2ccc(C)cc2)[C@@H]1CC` cannot be ordered by pIC50: < 4.00 for the first, < 4.00 for the second.

System: Jurkat
Experiment: Antiproliferative activity against human Jurkat cells assessed as inhibition of cell proliferation incubated for 72 hrs by CCK8 assay
Format: functional, cell-based
Conditions: not given

`CC(C)(C)[C@@H]1C=C(C(=O)N[C@@H](Cc2ccccc2)C(N)=O)[C@H](c2ccc(Br)cc2)N1S(=O)(=O)c1ccccc1Cl` and `Cc1ccccc1S(=O)(=O)N1[C@@H](c2ccc(Cl)c(Cl)c2)C(C(=O)N[C@@H](Cc2ccccc2)C(N)=O)=C[C@H]1C(C)(C)C` cannot be ordered by GI50: 4.74 to 8.75 µM for the first, 5.62 to 6.9 µM for the second.

`Cc1ccccc1S(=O)(=O)N1[C@@H](c2ccc(Cl)cc2)C(C(=O)N[C@@H](Cc2ccccc2)C(N)=O)=C[C@H]1C(C)CC(C)(C)C` (stereo partly specified) gave a GI50 of 6.4 to 9.76 µM.

System: MCF7
Experiment: Antiproliferative activity against human MCF7 cells assessed as inhibition of cell proliferation incubated for 6 days by CCK8 assay
Format: functional, cell-based
Conditions: MCF7, 144 h

`Cc1ccccc1S(=O)(=O)N1[C@@H](c2ccc(Cl)cc2)C(C(=O)N[C@@H](Cc2ccccc2)C(N)=O)=C[C@H]1C(C)CC(C)(C)C` (stereo partly specified) gave a GI50 of 3.1 to 4.71 µM.

System: MDA-MB-231
Experiment: Antiproliferative activity against human MDA-MB-231 cells assessed as inhibition of cell proliferation incubated for 72 hrs by CCK8 assay
Format: functional
Conditions: MDA-MB-231, 72 h

`CC(C)(C)[C@@H]1C=C(C(=O)N[C@@H](Cc2ccccc2)C(N)=O)[C@H](c2ccc(Br)cc2)N1S(=O)(=O)c1ccccc1Cl` and `Cc1ccccc1S(=O)(=O)N1[C@@H](c2ccc(Cl)c(Cl)c2)C(C(=O)N[C@@H](Cc2ccccc2)C(N)=O)=C[C@H]1C(C)(C)C` cannot be ordered by GI50: 4.43 to 11.3 µM for the first, 5.54 to 12.6 µM for the second.

System: BT-474
Experiment: Antiproliferative activity against human BT474 cells assessed as inhibition of cell proliferation incubated for 72 hrs by CCK8 assay
Format: functional, cell-based
Conditions: BT-474, 72 h

Compared with `CC(C)(C)[C@@H]1C=C(C(=O)N[C@@H](Cc2ccccc2)C(N)=O)[C@H](c2ccc(Br)cc2)N1S(=O)(=O)c1ccccc1Cl`, `Cc1ccccc1S(=O)(=O)N1[C@@H](c2ccc(Cl)c(Cl)c2)C(C(=O)N[C@@H](Cc2ccccc2)C(N)=O)=C[C@H]1C(C)(C)C` is higher in GI50: 9.08 to 9.9 µM for the first, 10.6 to 10.8 µM for the second.

Molecule `Cc1ccccc1S(=O)(=O)N1[C@@H](c2ccc(Cl)cc2)C(C(=O)N[C@@H](Cc2ccccc2)C(N)=O)=C[C@H]1C(C)CC(C)(C)C` (stereo partly specified) has a GI50 of 10.1 to 10.8 µM.

System: not listed separately
Experiment: Antiproliferative activity against human MCF10A cells assessed as inhibition of cell proliferation incubated for 72 hrs by CCK8 assay
Format: cell-based, MCF-10A
Conditions: not given

`Cc1ccccc1S(=O)(=O)N1[C@@H](c2ccc(Cl)cc2)C(C(=O)N[C@@H](Cc2ccccc2)C(N)=O)=C[C@H]1C(C)CC(C)(C)C` (stereo partly specified) showed a GI50 at 72 h of 9.16 to 11.3 µM.

System: MIA PaCa-2
Experiment: Antiproliferative activity against human MIAPaCa2 cells assessed as inhibition of cell proliferation incubated for 72 hrs by CCK8 assay
Format: functional, cell-based
Conditions: MIA PaCa-2, 72 h

`CC(C)(C)[C@@H]1C=C(C(=O)N[C@@H](Cc2ccccc2)C(N)=O)[C@H](c2ccc(Br)cc2)N1S(=O)(=O)c1ccccc1Cl` and `Cc1ccccc1S(=O)(=O)N1[C@@H](c2ccc(Cl)c(Cl)c2)C(C(=O)N[C@@H](Cc2ccccc2)C(N)=O)=C[C@H]1C(C)(C)C` cannot be ordered by GI50: 6.15 to 12.1 µM for the first, 7.49 to 8.06 µM for the second.

Work on `Cc1ccccc1S(=O)(=O)N1[C@@H](c2ccc(Cl)cc2)C(C(=O)N[C@@H](Cc2ccccc2)C(N)=O)=C[C@H]1C(C)CC(C)(C)C` (stereo partly specified) yielded a GI50 of 6.7 to 7.17 µM.

System: ASPC1
Experiment: Antiproliferative activity against human AsPC1 cells assessed as inhibition of cell proliferation incubated for 6 days by CCK8 assay
Format: functional, cell-based
Conditions: ASPC1, 144 h

`CC(C)(C)[C@@H]1C=C(C(=O)N[C@@H](Cc2ccccc2)C(N)=O)[C@H](c2ccc(Br)cc2)N1S(=O)(=O)c1ccccc1Cl` and `Cc1ccccc1S(=O)(=O)N1[C@@H](c2ccc(Cl)c(Cl)c2)C(C(=O)N[C@@H](Cc2ccccc2)C(N)=O)=C[C@H]1C(C)(C)C` cannot be ordered by GI50: 12.2 to 16.8 µM for the first, 11.5 to 12.9 µM for the second.

For `Cc1ccccc1S(=O)(=O)N1[C@@H](c2ccc(Cl)cc2)C(C(=O)N[C@@H](Cc2ccccc2)C(N)=O)=C[C@H]1C(C)CC(C)(C)C` (stereo partly specified), the GI50 was 8.61 to 11.4 µM.

System: PANC-1
Experiment: Antiproliferative activity against human PANC1 cells assessed as inhibition of cell proliferation incubated for 72 hrs by CCK8 assay
Format: functional, cell-based
Conditions: PANC-1, 72 h

`CC(C)(C)[C@@H]1C=C(C(=O)N[C@@H](Cc2ccccc2)C(N)=O)[C@H](c2ccc(Br)cc2)N1S(=O)(=O)c1ccccc1Cl` and `Cc1ccccc1S(=O)(=O)N1[C@@H](c2ccc(Cl)c(Cl)c2)C(C(=O)N[C@@H](Cc2ccccc2)C(N)=O)=C[C@H]1C(C)(C)C` cannot be ordered by GI50: 9.05 to 12 µM for the first, 7.52 to 11.7 µM for the second.

`Cc1ccccc1S(=O)(=O)N1[C@@H](c2ccc(Cl)cc2)C(C(=O)N[C@@H](Cc2ccccc2)C(N)=O)=C[C@H]1C(C)CC(C)(C)C` (stereo partly specified) gave a GI50 of 8.6 to 8.85 µM.

System: Capan-2
Experiment: Antiproliferative activity against human Capan2 cells assessed as inhibition of cell proliferation incubated for 72 hrs by CCK8 assay
Format: functional, cell-based
Conditions: Capan-2, 72 h

`CC(C)(C)[C@@H]1C=C(C(=O)N[C@@H](Cc2ccccc2)C(N)=O)[C@H](c2ccc(Br)cc2)N1S(=O)(=O)c1ccccc1Cl` and `Cc1ccccc1S(=O)(=O)N1[C@@H](c2ccc(Cl)c(Cl)c2)C(C(=O)N[C@@H](Cc2ccccc2)C(N)=O)=C[C@H]1C(C)(C)C` cannot be ordered by GI50: 8.32 to 10.7 µM for the first, 8.45 to 11.3 µM for the second.

For `Cc1ccccc1S(=O)(=O)N1[C@@H](c2ccc(Cl)cc2)C(C(=O)N[C@@H](Cc2ccccc2)C(N)=O)=C[C@H]1C(C)CC(C)(C)C` (stereo partly specified), the GI50 was 7.5 to 10.5 µM.

System: CFPAC-1
Experiment: Antiproliferative activity against human CFPAC-1 cells assessed as inhibition of cell proliferation incubated for 72 hrs by CCK8 assay
Format: functional, cell-based
Conditions: CFPAC-1, 72 h

First: CC(C)(C)[C@@H]1C=C(C(=O)N[C@@H](Cc2ccccc2)C(N)=O)[C@H](c2ccc(Br)cc2)N1S(=O)(=O)c1ccccc1Cl
Second: Cc1ccccc1S(=O)(=O)N1[C@@H](c2ccc(Cl)c(Cl)c2)C(C(=O)N[C@@H](Cc2ccccc2)C(N)=O)=C[C@H]1C(C)(C)C
The GI50 of the first is higher: 6.16 to 6.3 µM for the first, 2.03 to 6.09 µM for the second.
